“Also recorded” adds a separate entry of the source. Read-outs that look alike come from different tables or passages of the source.
Experiments:
[1] = Fe(III) complex formation constants and pM; assay type: binding; conditions: pH 7.4; chelator 10 and metal ion 1 μM
Excerpt: The new HOPO monomers display high affinity for ferric ions. For example, 1-methyl-4(1-propylcarbamoyl)-3-hydroxy-2(1H)-pyridinone (Formula 9C, backbone=n-propyl, R'=H, R1 =methyl) has overall complex binding constants on the order of 10^28.7 M-3 for Fe(III). However, because of the 3:1 stoichiometry of the bidentate monomer/Fe complex, its stability is strongly dependent on its concentration (by the 3rd power). Generally, the pM concept was used to define the concentration of unchelated metal ion at physiological pH (7.4), and at chelator and metal ion concentrations (10 and 1 μM, respectively) which are those expected in the plasma of a chelator-treated patient. […] Since the multidentate 3,2-HOPO ligands have higher pM values than their bidentate analogs, they have stronger scavenging power for iron and actinides in vivo. For example, the bidentate compound 1-methyl-4(1-propylcarbamoyl)-3-hydroxy-2(1H)-pyridinone has a pM of 19.26 for Fe(III), while the hexadentate compound TREN-Me-3,2-HOPO (Formula 12, m=1) has a pM of 26.69 for Fe(III).

[2] = Chemical and physical properties (solubility, pKa, pH, hygroscopicity); assay type: physicochemical
[3] = Promoting excretion of 238Pu(IV) in mice by orally administered ligands (Table 4); assay type: in vivo; conditions: 30 μmol/kg by gavage
Excerpt: (§1) Animal studies were completed using methods detailed in Radiation Protection Dosimetry, 1994, 53, 305: P. W. Durbin et al., "In Vivo Chelation of Am(III), Pu(IV), Np(V) and U(VI) in Mice by TREN-(Me-3,2-HOPO)"; Radiation Protection Dosimetry, 1989, 17, 351: P. W. Durbin et al., "Removal of ^238 Pu(IV) from Mice by Polycatechoylate, -Hydroxamate or -Hydroxypyridinonate Ligands"; Radiation Research, 1984, 99, 85: P. W. Durbin et al., "Specific Sequestering Agents for the Actinides . . . "; Radiation Research, 1984, 99, 106: P. W. Durbin et al., "Removal of Pu and Am from Beagles and Mice . . . "; Radiation Research, 1980, 81, 170: R. D. Lloyd et al., and P. W. Durbin et al., "Specific Sequestering Agents for the Actinides . . . ". The foregoing articles are hereby incorporated by reference.
Radionuclides used in the animal studies came from a variety of sources. […]
The novel chelating agents of the present invention were tested for their effectiveness in promoting excretion of ^238 Pu(IV) by oral administration to mice as follows. […] The ^238 Pu(IV) in skeleton, soft tissues, and separated excreta was determined by counting the ^234 U L x-rays. […]

[4] = Promoting excretion of U(VI) in mice by injected ligands (Table 5); assay type: in vivo
Excerpt: as §1
The ^232 U was obtained from the Isotope Products Laboratory, Burbank, Calif., and ^234,235 U was obtained as U metal from long-held LBL storage. The two U sources were combined and dissolved in 6N HNO3, dried, and redissolved in 0.1N HCl. The daughter radioactivities were removed by elution from a Dowex-50X4 column (22 cm length, 0.7 cm diameter, 1.5 mL min^-1 flow rate) with 3.2N HCl. The U fractions (previously identified by a trial run with ^234,235 U alone) were combined, dried, and redissolved in 0.14M NaCl at pH 5.5.
(§2) One of the novel chelating agents of the present invention, TREN-Me-3,2-HOPO, was also tested for effectiveness in promoting excretion of ^241 AM(III), ^237 Np(V), and ^232 U(VI) by injection into mice, as follows: Mice, in groups of five, each received an intravenous injection of (a) 1100 Bq of ^241 Am(III) in 0.2 mL of citrate buffer, (b) 150 Bq of ^232 UO2 Cl2 plus 3.6 mg of ^235 UO2 Cl2 in 0.2 mL of saline, or (c) 200 Bq of ^237 NpO2 Cl ([…] of ^237 NPO2 Cl) in 0.2 mL of saline. Three to five minutes later, 30 μmol/kg of TREN-Me-3,2-HOPO was injected intraperitoneally in 0.5 mL of saline. The mice were killed 24 hours after the actinide injection, frozen, and dissected after partial thawing. The skeleton, soft tissues, and separated excreta were radioanalyzed by counting the ^241 Am gamma rays, or the alpha particles emitted by ^237 Np or ^232 U (and its ingrowing daughters). Removal of those actinides from mice by injected TREN-Me-3,2-HOPO is summarized in Table 5, which also includes data for mice similarly treated with CaNa3 -DTPA and for actinide-injected controls. […] The structure of Am(III)-TREN-Me-3,2-HOPO is considered to resemble that of the Gd(III) complexes (see Example 20). Complexation of the fraction of Np(V) that is reduced in vivo to Np(IV) is considered to resemble that of Pu(IV). Complexation of U(VI) is considered to take place through binding to UO2^2+.
(§3) ^a Ligands (30 μmol/kg) i.p. at 3 to 5 min after actinide i.v.;

[5] = Promoting excretion of 237Np(V) in mice by injected ligands (Table 5); assay type: in vivo
Excerpt: as §1
The ^237 Np(V) was obtained from J. Bucher of the LBL Actinide Chemistry group as NpO2 Cl in 0.1M HCl. It was diluted to the desired radioactivity concentration in 0.14M NaCl and the pH was adjusted to about 4.5 with NaOH just before use.
as §2, §3

[6] = Promoting excretion of 241Am(III) in mice by injected ligands (Table 5); assay type: in vivo
Excerpt: as §1
Radionuclides used in the animal studies came from a variety of sources. The ^238 Pu(IV) citrate and ^241 Am(III) citrate solutions were prepared for animal injection by 8- to 10-fold dilution with 0.14M NaC1 (pH 4) of concentrated stock solutions (0.08M sodium citrate buffer) that had been held in frozen storage at Lawrence Berkeley Laboratory (hereinafter LBL) for several years. [The ^238 Pu(IV) was originally obtained from D. R. Atherton at the University of Utah Radiobiology Laboratory, Salt Lake City. The ^241 Am(III) solution had been obtained many years earlier from the LBL Actinide Chemistry group.]
as §2, §3

[7] = assay type: in vivo, mice; conditions: for body weight / plasma urea N: mean ± SD
Procedure: The test of acute toxicity of these novel ligands was carried out as follows. […] The ligand was dissolved in 0.5 to 1.0 ml of saline at pH 7 to 8. After a period of observation, the mice were killed, selected tissues were removed and fixed for histopathological examination,and unusual findings at autopsy were recorded.

[8] = 30 μmol/kg i.p. at 3 to 5 min after actinide i.v.
[9] = 30 μmol/kg i.p. at 3 to 5 min after actinide i.v., pooled
[10] = protocol I: 100 μmol/kg × 10 daily i.p., 11 d
[11] = protocol I: 100 μmol/kg × 10 daily i.p., 21 d
[12] = protocol II: 500 μmol/kg × 2 in 8 h i.p., 8 d

CCCNC(=O)c1ccn(C)c(=O)c1O [3-hydroxy-1-methyl-4(1-propylcarbamoyl)-2(1H)-pyridinone]
pM for Fe(III) [1]: 19.26 | solubility (in words) [2]: very soluble in water as well as organic solvents

Cn1ccc(C(=O)NCCN(CCNC(=O)c2ccn(C)c(=O)c2O)CCNC(=O)c2ccn(C)c(=O)c2O)c(O)c1=O [TREN-Me-3,2-HOPO]
effectiveness of Pu removal, oral (in words) [3]: the most effective both (by oral and injection) cases | pM for Fe(III) [1]: 26.69 | reduction of U content (in words) ([4]; 30 μmol/kg i.p.): reduced the body content of all three actinides to a significantly greater degree than CaNa3 -DTPA; also recorded: more than one-half of the U burden in the kidneys was removed | U(VI) in kidneys at 24 h [4, 8]: 1.6 ± 0.3% of injected actinide | U(VI) in liver at 24 h [4, 8]: 0.6 ± 0.3% of injected actinide | U(VI) in skeleton at 24 h [4, 8]: 16 ± 2.4% of injected actinide | U(VI) in soft tissue at 24 h [4, 8]: 1.6 ± 0.3% of injected actinide | U(VI) in whole body at 24 h [4, 8]: 9.4 ± 6.0% of injected actinide | U(VI) excreta: feces and GI contents [4, 9]: 2.3% of injected actinide | U(VI) excreta: urine 0-24 h [4, 9]: 70% of injected actinide | reduction of Np content (in words) ([5]; 30 μmol/kg i.p.): reduced the body content of all three actinides to a significantly greater degree than CaNa3 -DTPA; also recorded: the Np content of the soft tissues was significantly reduced | Np(V) in liver at 24 h [5, 8]: 3.8 ± 5.7% of injected actinide | Np(V) in skeleton at 24 h [5, 8]: 34 ± 4.5% of injected actinide | Np(V) in soft tissue at 24 h [5, 8]: 3.1 ± 1.1% of injected actinide | Np(V) in whole body at 24 h [5, 8]: 42 ± 11% of injected actinide | Np(V) excreta: feces and GI contents [5, 9]: 17% of injected actinide | Np(V) excreta: urine 0-24 h [5, 9]: 40% of injected actinide | Np(V) in kidneys at 24 h [5, 9]: 1.0% of injected actinide | reduction of Am content (in words) ([6]; 30 μmol/kg i.p.): reduced the body content of all three actinides to a significantly greater degree than CaNa3 -DTPA; also recorded: the Am content of all tissues was greatly reduced | Am(III) in liver at 24 h [6, 8]: 1.0 ± 0.6% of injected actinide | Am(III) in skeleton at 24 h [6, 8]: 8.1 ± 6% of injected actinide | Am(III) in soft tissue at 24 h [6, 8]: 1.6 ± 0.6% of injected actinide | Am(III) in whole body at 24 h [6, 8]: 11 ± 1.4% of injected actinide | Am(III) excreta: feces and GI contents [6, 9]: 8% of injected actinide | Am(III) excreta: urine 0-24 h [6, 9]: 51% of injected actinide | Am(III) in kidneys at 24 h [6, 9]: 0.2% of injected actinide | body weight [7, 10]: 102 ± 1 percent control | plasma urea N [7, 10]: 112 ± 10 percent control | no. of survivors ([7]; protocol I: 100 μmol/kg × 10 daily i.p., 11 d, of 5 mice): 5 | body weight [7, 11]: 106 ± 4 percent control | plasma urea N [7, 11]: 120 ± 9 percent control | no. of survivors ([7]; protocol I: 100 μmol/kg × 10 daily i.p., 21 d, of 5 mice): 5 | body weight [7, 12]: 101 ± 4 percent control | plasma urea N [7, 12]: 119 ± 15 percent control | no. of survivors ([7]; protocol II: 500 μmol/kg × 2 in 8 h i.p., 8 d, of 19 (TREN) or 10 (H(2,2)) mice): 19
